# pIC50: −log10 of the molar value. Where “and” joins values, the source holds several entries; their conditions need not be identical. Equal values may be shown once.
# System: S. Typhi PhoP-promoter GFP reporter, fluorescence, 4 h
# Assay: modified counter assay using GFP fluorescence, PhoP regulon inhibitor project, dose response (AID 1985)
row,SMILES,pIC50
1,CS(=O)(=O)c1ccc([C@@H](O)[C@@H](CO)NC(=O)C(Cl)Cl)cc1,4.71
2,CCCCC(CC)CN=C(N)NC(N)=NCCCCCCN=C(N)NC(N)=NCC(CC)CCCC (stereo unspecified),5.58
3,O=C(Cn1nc(CNc2ccc(Br)cc2)[n+]2c1CCCCC2)c1ccc([N+](=O)[O-])cc1,4.10
4,CCOc1cccc(CNCCc2c(C)[nH]c3ccc(OC(F)(F)F)cc23)c1O,4.12
5,COc1cccc(/C=N\NC(=O)Cn2nnc3ccccc32)c1O,4.01
6,CN1CCN(C2Cc3cc(Cl)ccc3Sc3cc(F)ccc32)CC1 (stereo unspecified),4.43
7,COC(=O)C1C(O)C(C)C(O)C(C)(O)/C=C\C=C(/C)C(=O)Nc2c(C)c(OC(C)=O)c3c(c2O)C(=O)C(C)=C2OCOC(=C23)/C(C)=C/C(C)(O)C(O)C(C)C1O (stereo unspecified),4.48
8,CC(C)Oc1ccc(Cc2cnc(N)nc2N)cc1,4.30
9,O=C1CSC(=S)N1c1cccc(O)c1,4.14
10,Cc1cc(OCC(O)CNC(C)c2ccccc2)ccc1C(C)C (stereo unspecified),4.08
11,Cc1c(N=Cc2cc(Br)cc(Br)c2O)cccc1C(=O)O,4.11
12,O=C(CCc1ccccc1)NNC(=O)c1ccccn1,4.00
13,O=C(Cn1cc[n+](CC(=O)c2ccc(Cl)cc2Cl)c1)c1ccc(Cl)cc1Cl,4.43
14,CN1CCN(c2c(F)cc3c(=O)c(C(=O)O)cn4c3c2SCC4)CC1,5.50 and 5.46
15,CNC[C@@H](Cc1ccccc1)NC[C@@H](CC1CCCCC1)NCCCc1ccccc1,4.38
16,CCCCCCCNC(=O)C1(CC2CC(c3cccc(Br)c3)=NO2)CCNCC1 (stereo unspecified),4.34
17,CN1CCN(c2ccc(NC(=O)c3ccc(-c4ccc(Br)cc4)o3)cc2)CC1,4.08
18,O=C(O)c1ccc(N2C(=O)CSC2=S)cc1,3.84
19,COc1ccc(NC(=O)c2cc(Br)c(Br)s2)cn1,4.63
20,CC(C)N1CSC(=S)N(Cc2ccccc2)C1,4.22
21,Cc1cc(NS(=O)(=O)c2ccc(NC(=S)NC(=O)c3cccnc3)cc2)no1,3.90
22,O=C(Nc1ccccc1)c1ccc2nsnc2c1,> 6.64
23,COc1ccc2[nH]c3c(C)c4ccncc4c(C)c3c2c1,4.41
24,CN(C)CCCNc1cc(C(C)(C)C)nc2c(-c3ccccc3)cnn12,4.12

row,SMILES,pIC50
1,Oc1cccc(C=NCc2ccccc2)c1O,4.24
2,CCN1CCc2c(C#N)c(NCc3ccccc3)nc(NCCO)c2C1,3.85
3,ON=C1/C(=N\O)CC2(C/C1=N/O)OCCO2,3.95
4,O=CN/N=C/c1c(O)ccc2ccccc12,4.31
5,Cc1cccc(C(=O)NNC(=S)NC(=O)c2cccs2)c1,4.30
6,COc1ccccc1N1CCN(Cc2ccc(O)c3ncccc23)CC1,4.14
7,O=c1c2ccccc2[nH]c2ccc(F)cc12,4.15
8,Oc1ccc(/C=N/Nc2nccnc2Cl)c(O)c1,4.18
9,O=C(Nc1ccc(Cl)cc1)c1cccs1,3.98
10,Cc1ccc(-n2c(-c3ccc(Br)cc3)c[n+]3c2CCc2ccc4cccnc4c2-3)cc1,4.01
11,Cc1[nH]cnc1C(=O)N/N=C/c1ccc([N+](=O)[O-])s1,4.69
12,O=C(c1cnn(C(=O)COc2ccccc2F)c1)c1cc(F)ccc1O,4.08
13,Oc1c(Cl)cc(CN2CCCCC2)c2cccnc12,4.83
14,C/C(=N/Nc1ccnc2cc(Cl)ccc12)c1ccc(N)cc1,4.26
15,Cc1cc(Cl)c(OCCCNCc2ccccc2)c(Br)c1,4.09
16,O=C(O)/C(=C\C(=O)c1ccccc1)Nc1ccccc1,4.69
17,Brc1ccc2c(c1)C(OC1CN3CCC1CC3)c1ccccc1CS2 (stereo unspecified),4.02
18,OCCNc1nc(Nc2ccccc2)nc2ccccc12,4.45
19,Cc1cc(C)c2nc(C)cc(N/N=C/c3ccc(O)cc3)c2c1,4.30
20,NC[C@@H]1O[C@H](C23CC4CC(CC(C4)C2)C3)Cc2c1ccc(O)c2O,4.40
21,Oc1ccc(CN2CCN(Cc3ccccc3)CC2)c2cccnc12,4.40
22,CN(C)C1C(=O)C(C(N)=O)=C(O)C2(O)C(=O)C3=C(O)c4c(O)cccc4C(C)(O)C3CC12 (stereo unspecified),5.68
23,CCCOc1ccc(C(=O)NNC(=S)NC(C)=O)cc1,4.28
24,O=C(NC(CO)C(O)c1ccc([N+](=O)[O-])cc1)C(Cl)Cl (stereo unspecified),5.59

row,SMILES,pIC50
1,O=C(N/N=C/c1ccccc1O)C1SCCCS1,4.08
2,Fc1ccc(CCNCc2ccc(Cl)c(Cl)c2)cc1,4.17
3,CCCCCOc1ccc(C)cc1CN(CCCl)CCCl,3.86
4,CO[C@@]1(NC(=O)C2SC(=C(C(N)=O)C(=O)O)S2)C(=O)N2C(C(=O)O)=C(CSc3nnnn3C)CS[C@@H]21 (stereo partly specified),4.88
5,O=C(Nc1csc(Cl)c1)c1ccccc1,4.36
6,O=C(CCc1ccccc1)NNC(=S)NC(=O)c1ccccc1,3.91
7,COc1nsnc1NS(=O)(=O)c1ccc(NC(=S)NC(=O)c2cccnc2)cc1,4.63
8,CCc1ccc(NC(=O)C[n+]2cc(-c3ccc(C)cc3)n3c2CCC3)cc1,4.16
9,Cc1cc(NC(=O)c2ccccc2)sc1C,4.07
10,O=C1c2ccccc2C2=Nc3ccccc3SC(c3ccccc3F)C12 (stereo unspecified),4.68
11,COc1ccc(N2C3=C(CC4=C2CC(C)(C)CC4=O)C(=O)CC(C)(C)C3)cc1,3.84
12,NC(N)=N/N=C/c1ccc(OCc2ccc(Cl)cc2)cc1,4.44
13,O=C(N/N=C/c1ccc([N+](=O)[O-])s1)C(O)c1ccccc1 (stereo unspecified),4.48
14,COc1cccc(Nc2nc(NCC3CCCO3)c3ccccc3n2)c1 (stereo unspecified),4.47
15,Cc1cc(/C=C\c2ccc3cc(N(C)C)ccc3[n+]2C)c(C)n1-c1ccccc1,4.49
16,Oc1ccccc1Nc1nc(NCc2ccco2)c2ccccc2n1,3.86
17,Nc1nonc1-n1nnc(C(=O)N/N=C/c2cc(Br)ccc2O)c1CSC1=NCCS1,4.58
18,Nc1c2ccccc2nc2ccccc12,4.32
19,CCc1nccc2c1[nH]c1ccccc12,3.91
20,c1ccc2c(c1)CSc1sccc1C2=C1CCNCC1,3.98
21,COc1cc([N+](=O)[O-])cc(/C=N/NC(=O)CSc2ccccn2)c1O,4.11
22,CCCCOc1ccc(NC2=NC3(CCCCC3)N=C(N)N2)cc1,4.70
23,CCN(CCNCC(O)COc1ccccc1C(C)C)c1cccc(C)c1 (stereo unspecified),4.14
24,C/C(O)=C\c1nc2ccccc2oc1=O,4.83

row,SMILES,pIC50
1,CCSc1ccc2c(c1)N(CCCN1CCN(C)CC1)c1ccccc1S2,3.88
2,Cc1cc(NC2CCCCC2)nc(NCc2ccccc2)n1,4.11
3,Cc1nc(N)nc(N)c1CCCc1ccc(Cl)c(Cl)c1,4.37
4,Cc1ccccc1C(=O)N/N=C/c1ccc([N+](=O)[O-])s1,4.54
5,O=C(NC1CCCCC1)c1ccc([N+](=O)[O-])o1,4.40
6,C#CCOCCOCCOCCNc1nc(N2CCN(C(=O)[C@H](Cc3ccc(O)cc3)n3cc([C@@H](N)CC(C)C)nn3)CC2)nc(N2CCN(C(=O)[C@H](Cc3cc4ccccc4[nH]3)n3cc([C@@H](N)CC(C)C)nn3)CC2)n1,4.07
7,CCCCCCCCCCOC(=O)Cn1c(COc2ccc(Cl)cc2)[n+](C)c2ccccc21,4.80
8,COc1ccc(-c2cnc(NCc3cc4c(cc3[N+](=O)[O-])OCO4)n2C)cc1,3.97
9,COc1ccccc1CNCCc1ccc(F)cc1,4.44
10,O=[N+]([O-])c1cc(Cl)cc(/C=N/NC(=S)Nc2ccc(S(=O)(=O)N3CCOCC3)cc2)c1O,4.33
11,CN1CCC(OC(=O)c2ccc(Br)cc2)CC1,4.23
12,[O-][n+]1c2c(c3c4non(O)c4ccc31)CCCC2,3.89
13,CC1CCC(C(C)C)C(OC(=O)Cn2c(-c3ccc(Cl)cc3)[n+](C)c3ccccc32)C1 (stereo unspecified),3.84
14,Cc1ccc(N/C(=C\C(=O)c2ccccc2)C(=O)O)cc1,4.76
15,CCCCOc1ccc(OCCNC(=O)c2ccco2)cc1,4.18
16,O=S(=O)(Nc1ncccn1)c1ccc(NC(=S)Nc2ccc(Cl)cc2)cc1,4.01
17,Nc1ncn(C2O[C@H](CO)[C@@H](O)[C@H]2O)c(=O)n1 (stereo partly specified),5.00
18,O=S(=O)(Nc1ncccn1)c1ccc(NC(=S)Nc2cccc(Cl)c2)cc1,4.02
19,O=C(/C=C/c1ccccc1)c1cc(Br)ccc(=O)c1O,4.29
20,CC(C(=O)c1ccc(-c2ccccc2)cc1)[n+]1cccc(NC(=O)c2ccccc2)c1 (stereo unspecified),4.44
21,O=C(CC(=O)c1cc(Cl)ccc1O)c1ccccc1,3.89
22,CC(C)Cc1c(O)nc(SCC(=O)Nc2ccc3c(c2)CCC3)[nH]c1=O,4.02
23,CCCCCOc1ccc(CSC(=N)N)cc1[N+](=O)[O-],4.68
24,CCCOc1ccc(C(=O)NNC(=S)NC(=O)CC)cc1,4.10

row,SMILES,pIC50
1,Cc1nc2ccccn2c1C(=O)N/N=C/c1ccc([N+](=O)[O-])o1,4.48
2,O=C(NCCCN1CCN(c2ccc(F)cc2)CC1)Nc1ccc([N+](=O)[O-])cc1,3.93
3,CN(C)CC/C=C1/c2ccccc2Sc2ccc(Cl)cc21,4.06
4,CCn1cc(C(=O)O)c(=O)c2cc(F)c(N3CCN(C(=S)NC(=O)c4cccc(C)c4)CC3)cc21,5.08
5,Cc1nc(N)c(Cc2ccc(Cl)cc2Cl)c(N)n1,4.08
6,CCCNC1=C(C)C(=O)C2=C(C1=O)C(COC(N)=O)[C@]1(OC)C3NC3CN21 (stereo partly specified),4.29
7,c1ccc2c(NCCc3c[nH]c4ccccc34)c3ccccc3nc2c1,4.12
8,CC/C(=N\Nc1ccnc2cc(Cl)ccc12)c1ccc(O)cc1,3.83
9,CCN(CCC(=O)Nc1ccc(Br)c(C)c1)Cc1ccccc1,4.10
10,Nc1nc(=S)c2[nH]cnc2[nH]1,5.20
11,O=c1c2ccccc2nc(N/N=C/c2c(O)ccc3ccccc23)n1O,4.64
12,CN(C)CCCN1c2ccccc2Sc2ccc(Cl)cc21,4.05 and 4.09
13,CSc1ccc2c(c1)C(N1CCN(C)CC1)Cc1ccc(F)cc1S2 (stereo unspecified),4.29
14,O=C(N/N=C/c1ccc([N+](=O)[O-])o1)C(O)c1ccccc1 (stereo unspecified),4.88
15,CCCCc1c(O)nc(SCC(=O)Nc2ccc3c(c2)CCC3)[nH]c1=O,4.51
16,NC1=NC[C@@H](Cc2ccc(O)cc2)N1CCCCC1CCCCC1,4.49
17,C#CCOCCOCCOCCNc1nc(N2CCN(C(=O)[C@H](Cc3cc4ccccc4[nH]3)n3cc([C@@H](N)C(C)CC)nn3)CC2)nc(N2CCN(C(=O)[C@H](Cc3cc4ccccc4[nH]3)n3cc([C@@H](N)Cc4ccc(O)cc4)nn3)CC2)n1 (stereo partly specified),4.22
18,Cc1cccc2sc(N(CCCN(C)C)C(=O)COc3ccc(Cl)cc3)nc12,4.10
19,CCCCCCCCCCCCCCCC[N+](C)(C)CCN(Cc1ccc(OC)cc1)c1ncccn1,4.62
20,Cn1c(-c2ccc3c(c2)OCO3)cnc1NCc1ccc(Cl)cc1,3.85

# — PubChem BioAssay AID1985 (Southern Research Specialized Biocontainment Screening …, 2009)
